Test results published in patent publication US6268377A, “Method for treating androgen-related conditions” (Merck & Co., Inc., priority 1999, dated 2001).
“Also recorded” adds a separate entry of the source. Like-named read-outs stand apart in the source and are kept apart here.

How the values were obtained:
[1] = system: men with clinical benign prostatic hyperplasia (BPH); experiment: Four-year double-blind placebo-controlled clinical study of finasteride, analysed by concomitant calcium channel blocker use; type: in vivo, human; conditions: for Hazard Ratio (95% CI), AUR / Hazard Ratio (95% CI), Precipitated AUR / Hazard Ratio (95% CI), Spontaneous AUR / Hazard Ratio (95% CI), Surgery / Hazard Ratio (95% CI), Surgery and AUR: finasteride vs placebo; for Urologic events: AUR (incidence) / Urologic events: Precipitated AUR (incidence) / Urologic events: Spontaneous AUR (incidence) / Urologic events: Surgery (incidence) / Urologic events: Surgery and AUR (incidence): 5 mg finasteride daily, four-year study
Experimental: A total of 3040 men with clinical benign prostatic hyperplasia (BPH) diagnosed on the basis of moderate-to-severe symptoms, a decreased peak urinary flow rate (less than 15 mL/sec with a voided volume of 150 mL or more) and an enlarged prostate gland by digital rectal examination (DRE) were enrolled in a four-year study comparing finasteride with placebo. Men receiving alpha blocking agents or antiandrogens, and men with a history of chronic prostatitis, recurrent urinary tract infections, prostate or bladder cancer or surgery, or a serum prostate specific antigen (PSA) over 10 ng/mL were excluded. Men with serum PSA concentrations between 4.0 and 9.9 ng/mL had to have a negative prostate biopsy prior to enrollment.
After a one-month single-blind placebo lead-in, men were randomly assigned to receive placebo or 5 mg of finasteride (17β-(N-tert-butylcarbamoyl)-3-oxo-4-aza-5α-androst-1-en-3-one)daily in a four year, double-blind placebo-controlled study. BPH-related outcomes including symptoms, bothersomeness, adverse events and urinary flow rates, were assessed every 4 months. Serum PSA was measured every 4 months in the first year and then every 8 months at a central laboratory. Physical examination and routine hematological and serum chemistry tests were performed yearly. Magnetic resonance imaging (MRI) was performed at baseline and subsequently yearly in a subset of 10% of patients. All MRI images were read by a central radiologist blinded to treatment allocation and time of imaging.
Acute urinary retention (AUR) and surgery for BPH were predefined secondary end-points. The endpoint committee, blinded to treatment group, reviewed all study-related documents related to episodes of acute urinary retention, and all prostate surgeries for BPH, excluding surgery for prostate cancer. The endpoint committee classified episodes of AUR as spontaneous versus precipitated (when contributing factors such as urinary tract infection, surgery anesthesia, ingestion of alpha sympathomimetic drugs or anticholinergics were identified).
For a relatively clean comparison, data from patients in categories (a) and (b) were analyzed and patients in category (c) were excluded.

[2] = system: 5α-reductase 2; conditions: isozyme predominating in the prostate, cited from earlier work
[3] = system: 5α-reductase 1; conditions: isozyme predominating in sebaceous glands of facial and skin tissue; G. Harris et al. 1992; cited from earlier work
[4] = finasteride treated patients also on calcium channel blockers vs not on calcium channel blockers
[5] = patients who did not take a calcium channel blocker
[6] = patients who took a calcium channel blocker for more than 365 days
[7] = patients who did not take a calcium channel blocker, N = 1181
[8] = patients who took a calcium channel blocker for more than 365 days, N = 236

SMILES: CC(C)(C)NC(=O)[C@H]1CC[C@H]2[C@@H]3CC[C@H]4NC(=O)C=C[C@]4(C)[C@H]3CC[C@]12C [Finasteride, 17β-(N-tert-butylcarbamoyl)-3-oxo-4-aza-5α-androst-1-ene-3-one]
- rate of improvement in symptom score by month 16 ([1]; finasteride only group): continued to increase
- change of PSA (prostate specific antigen) versus time in the study ([1]; finasteride plus calcium channel blocker for more than 365 days, compared with finasteride only and placebo groups (FIG. 1)): greater decrease in PSA; also recorded: greatest decrease in PSA
- change in Quasi-AUA symptom score versus time in the study ([1]; finasteride plus calcium channel blocker for more than 365 days, compared with finasteride only and placebo groups (FIG. 2)): initally improved much faster; also recorded: greatest decrease in symptom score
- change in maximum urinary flow rate versus time in the study ([1]; finasteride plus calcium channel blocker for more than 365 days, compared with finasteride only and placebo groups (FIG. 3)): greater increase in maximum urinary flow rate; also recorded: greatest increase in maximum flow rate after 12 months
- change in prostate volume versus time in the study ([1]; finasteride plus calcium channel blocker for more than 365 days, compared with finasteride only and placebo groups (FIG. 4)): greater decrease; also recorded: greatest decrease in prostate volume
- rate of improvement in symptom score by month 16 ([1]; finasteride plus calcium channel blocker group): decreased rate of improvement in symptom score
- incidence of spontaneous acute urinary retention (AUR) (comparison) [1, 4]: lower
- incidence of urologic surgery (comparison) [1, 4]: lower
- Hazard Ratio (95% CI), AUR [1, 5]: 0.44 (0.30 to 0.64)
- Hazard Ratio (95% CI), Precipitated AUR [1, 5]: 0.55 (0.31 to 0.99)
- Hazard Ratio (95% CI), Spontaneous AUR [1, 5]: 0.38 (0.23 to 0.62)
- Hazard Ratio (95% CI), Surgery [1, 5]: 0.42 (0.31 to 0.57)
- Hazard Ratio (95% CI), Surgery and AUR [1, 5]: 0.48 (0.37 to 0.62)
- Hazard Ratio (95% CI), AUR [1, 6]: 0.46 (0.20 to 1.10)
- Hazard Ratio (95% CI), Precipitated AUR [1, 6]: 0.50 (0.19 to 1.31)
- Hazard Ratio (95% CI), Spontaneous AUR [1, 6]: 0.24 (0.05 to 1.21)
- Hazard Ratio (95% CI), Surgery [1, 6]: 0.55 (0.25 to 1.22)
- Hazard Ratio (95% CI), Surgery and AUR [1, 6]: 0.53 (0.28 to 1.00)
- Urologic events: AUR (incidence) [1, 7]: 2.6%
- Urologic events: Precipitated AUR (incidence) [1, 7]: 1.4%
- Urologic events: Spontaneous AUR (incidence) [1, 7]: 1.4%
- Urologic events: Surgery (incidence) [1, 7]: 4.4%
- Urologic events: Surgery and AUR (incidence) [1, 7]: 6.4%
- Urologic events: AUR (incidence) [1, 8]: 3.0%
- Urologic events: Precipitated AUR (incidence) [1, 8]: 2.5%
- Urologic events: Spontaneous AUR (incidence) [1, 8]: 0.4%
- Urologic events: Surgery (incidence) [1, 8]: 3.8%
- Urologic events: Surgery and AUR (incidence) [1, 8]: 5.9%
- inhibition of 5α-reductase type 2 (human prostate enzyme) [2]: potent inhibitor
- inhibition of 5α-reductase type 2 (human prostate enzyme) ([2]; listed as finasteride): potently inhibited
- sensitivity of 5α-reductase type 1 to finasteride [3]: relatively insensitive
